Earlier results on 2 compounds are cited in patent US7514574B2, “Biodegradable penetration enhancers with multiple hydrophilic moieties” (priority 2003, dated 2009).

In general, LD50 refers to the dose at which mortality reaches 50%.

Series [1] deals with human cadaver skin. The settings on record: tritiated water, Hirvonen et al (1993).
The test system of series [2] is mice. The settings on record: mouse, in vivo, ip.

Take `CCCCCCCCCCCCN1CCCCCC1=O` [Azone, 1-dodecylazacycloheptane-2-one]: the “increase of skin permeability to T2O (enhanced flux over passive flux)” value in series [1] is on record as 8 times. Further, in series [2], the LD50 is listed as 232 mg/kg.
Consider `CCCCCCCCCCCCOC(=O)CN(C)C` [dodedyl, (N,N-dimethyl amino) acetate, dodecyl (N N-dimethyl amino) acetate], for which the “increase of skin permeability to T2O (enhanced flux over passive flux)” value in series [1] is recorded as 13 times.
